Measurements published in patent publication US5786349A, “Method for treating chlamydia infectious diseases by rifamycin derivative” (Kaneka Corporation, priority 1995, dated 1998).
Values after ≈ are worked out from the molar mass of the structure shown. Values joined by “and” are separate entries in the source; they are usually repeats but may differ in a detail not shown here. Equal values may be shown once.

Assays:
[1] = system: Chlamydia pneumoniae TW-183; test: In vitro test 3: inhibition of inclusion formation in HeLa 229 cells, about 5 times the inoculum of test 2, C. pneumoniae TW-183; conditions: TW183, 72 h, read-out: Minimum inhibitory concentration TW-183
[2] = system: Chlamydia pneumoniae AR-39; test: In vitro test 3: inhibition of inclusion formation in HeLa 229 cells, about 5 times the inoculum of test 2, C. pneumoniae AR-39; conditions: AR39, 72 h, read-out: Minimum inhibitory concentration AR-39
[3] = system: Chlamydia pneumoniae AR-39; test: Infection-therapy test: mouse pneumonia model; conditions: 1 mg/kg/day i.p. for 3 days
[4] = system: Chlamydia trachomatis D/UW-3/Cx; test: In vitro test 1: inhibition of inclusion formation in HeLa 229 cells (Japan Society of Chemotherapy standard method), C. trachomatis D/UW-3/Cx; conditions: rifampicin vs compound 4
[5] = system: Chlamydia trachomatis F/UW-6/Cx; test: In vitro test 1: inhibition of inclusion formation in HeLa 229 cells (Japan Society of Chemotherapy standard method), C. trachomatis F/UW-6/Cx; conditions: rifampicin vs compound 4

COC1C=COC2(C)Oc3c(C)c(O)c4c(=O)c(c5oc6cc(N7CCN(CC(C)C)CC7)cc(O)c6nc-5c4c3C2=O)NC(=O)C(C)=CC=CC(C)C(O)C(C)C(O)C(C)C(O)C1C (centres unmarked) [Compound 5] gave an MIC [1] of 1.25 ng/mL (≈ 1.39 nM) and an MIC [2] of 2.5 ng/mL (≈ 2.78 nM).
In the case of COC1C=COC2(C)Oc3c(C)c(O)c4c(=O)c(c5oc6cc(N7CCN(CC(C)C)CC7)cc(O)c6nc-5c4c3C2=O)NC(=O)C(C)=CC=CC(C)C(O)C(C)C(O)C(C)C(OC(C)=O)C1C (centres unmarked) [Compound 4], the MIC [1] was 1.25 ng/mL (≈ 1.33 nM), the “Mice from which Chlamydia was reisolated from the lung/tested mice” value (“Mice … from the lung/tested mice” below) ([3]; 2 days after infection) was 3/3 and the “Mice … from the lung/tested mice” value ([3]; 7 days after infection (3 days after completion of treatment), 1 mg/kg/day) was “only one mouse in a group of 5 mice and 1/5”. For the same molecule, the “Mice … from the lung/tested mice” value ([3]; 9 days after infection (5 days after completion of treatment)) was 0/5, the “Mice … from the lung/tested mice” value ([3]; 14 days after infection (10 days after completion of treatment)) was 0/5 and the “Mice … from the lung/tested mice” value ([3]; 19 days after infection (15 days after completion of treatment)) was 0/5. The reisolation of organisms ([3]; after the 5th day from completion of treatment) was “no reisolation of organisms was observed”, the death of mice ([3]; treatment group) was “no death of the treatment group of mice was observed” and the MIC [2] was 1.25 ng/mL (≈ 1.33 nM).
CC[C@H]1OC(=O)[C@H](C)[C@@H](O[C@H]2C[C@@](C)(OC)[C@@H](O)[C@H](C)O2)[C@H](C)[C@@H](O[C@@H]2O[C@H](C)C[C@H](N(C)C)[C@H]2O)[C@](C)(O)C[C@@H](C)CN(C)[C@H](C)[C@@H](O)[C@]1(C)O [Azithromycin, reference compound] gave an MIC [1] of 250 ng/mL (≈ 334 nM) and an MIC [2] of 500 ng/mL (≈ 668 nM).
Work on CCCN1CCN(c2cc(O)c3nc4c5c6c7c(C)c(O)c5c(=O)c(c-4oc3c2)NC(=O)C(C)=CC=CC(C)C(O)C(C)C(O)C(C)C(OC(C)=O)C(C)C(OC)C=COC(C)(O7)C6=O)CC1 (centres unmarked) [Compound 3] yielded an MIC [1] of 5 ng/mL (≈ 5.39 nM) and an MIC [2] of 1.25 ng/mL (≈ 1.35 nM).
With COC1C=COC2(C)Oc3c(C)c(O)c4c(=O)c(c5oc6cc(N7CCN(CC8OCCO8)CC7)cc(O)c6nc-5c4c3C2=O)NC(=O)C(C)=CC=CC(C)C(O)C(C)C(O)C(C)C(OC(C)=O)C1C (centres unmarked) the MIC [1] was 2.5 ng/mL (≈ 2.57 nM) and the MIC [2] was 0.63 ng/mL (≈ 0.649 nM).
COC1C=COC2(C)Oc3c(C)c(O)c4c(=O)c(c5oc6cc(N7CCN(C)CC7)cc(O)c6nc-5c4c3C2=O)NC(=O)C(C)=CC=CC(C)C(O)C(C)C(O)C(C)C(OC(C)=O)C1C (centres unmarked) [Compound 2] gave an MIC [1] of 0.63 ng/mL (≈ 0.701 nM) and an MIC [2] of 0.16 ng/mL (≈ 0.178 nM).
In the case of CO[C@H]1/C=C/O[C@@]2(C)Oc3c(C)c(O)c4c(O)c(c(/C=N/N5CCN(C)CC5)c(O)c4c3C2=O)NC(=O)/C(C)=C\C=C\[C@H](C)[C@H](O)[C@@H](C)[C@@H](O)[C@@H](C)[C@H](OC(C)=O)[C@@H]1C [rifampicin], the “MIC as multiple of the concentration for the compound 4” value [4] was “about 30 times” and the “MIC as multiple of the concentration for the compound 4” value [5] was “about 30 times”.
Molecule COC1C=COC2(C)Oc3c(C)c(O)c4c(=O)c(c5oc6cc(N7CCOCC7)cc(O)c6nc-5c4c3C2=O)NC(=O)C(C)=CC=CC(C)C(O)C(C)C(O)C(C)C(OC(C)=O)C1C (centres unmarked) [Compound 1] has an MIC [1] of 0.63 ng/mL (≈ 0.711 nM) and an MIC [2] of 1.25 ng/mL (≈ 1.41 nM).
